Reference: US11993578B2, “Pyrazole-3-carboxylic acid amide derivative and pest control agent” (KUMIAI CHEMICAL INDUSTRY CO., LTD., priority 2017, dated 2024)

Test system: Aphis gossypii
Assay: Aphis gossypii killing test (Test Example 3)
Assay type: in vivo
Conditions: 72 h, 500 ppm active ingredient, cucumber nursery plant with nymphs dipped, after 3 days, 25° C., read-out: percentage of dead insects
Description: [formula] The water-dispersible powder prepared in accordance with Formulation example 2 was diluted in water so that the concentration of the active ingredient was 500 ppm. A nursery plant of cucumber preliminarily inoculated with nymphs of Aphis gossypii was dipped in this liquid agent, and air-dried. The nursery plant of cucumber after the treatment was placed in a thermostatic chamber at 25° C., and the number of live insects was counted after 3 days, and the percentage of dead insects was determined by the calculation formula of numerical formula 1. The test was conducted singly.

| Structure (SMILES) | pest or weed control at 500 ppm [%] |
| --- | --- |
| NC(=O)c1nn(-c2cccnc2)cc1O [Compound A-0001, 4-hydroxy-1-(pyridine-3-yl)-1H-pyrazole-3-carboxamide] | ≥ 50 |
| CC(C)(C)CCOc1cn(-c2cccnc2)nc1C(N)=O [Compound A-0017, 4-(3,3-dimethylbutoxy)-1-(pyridine-3-yl)-1H-pyrazole-3-carboxamide] | ≥ 50 |
| NC(=O)c1nn(-c2cccnc2)cc1OCC(F)(F)C(F)(F)F [Compound A-0044, 4-(2,2,3,3,3-pentafluoropropoxy)-1-(pyridine-3-yl)-1H-pyrazole-3-carboxamide] | ≥ 50 |
| NC(=O)c1nn(-c2cccnc2)cc1OC(F)(F)C(F)OC(F)(F)F (centres unmarked) [Compound A-0071, 1-(pyridine-3-yl)-4-[1,1,2-trifluoro-2-(trifluoromethoxy)ethoxy]-1H-pyrazole-3-carboxamide] | ≥ 50 |
| NC(=O)c1nn(-c2cccnc2)cc1OCc1ccccc1 [Compound A-0240, 4-benzyloxy-1-(pyridine-3-yl)-1H-pyrazole-3-carboxamide] | ≥ 50 |
| CC(C)C(=O)NC(=O)c1nn(-c2cccnc2)cc1OC(F)(F)C(F)OC(F)(F)F (centres unmarked) [Compound A-2403, N-isobutyryl-1-(pyridine-3-yl)-4-[1,1,2-trifluoro-2-(trifluoromethoxy)ethoxy]-1H-pyrazole-3-carboxamide] | ≥ 50 |
| NC(=S)c1nn(-c2cccnc2)cc1OC(F)(F)C(F)OC(F)(F)F (centres unmarked) [Compound A-5436, 1-(pyridine-3-yl)-4-[1,1,2-trifluoro-2-(trifluoromethoxy)ethoxy]-1H-pyrazole-3-carbothioamide] | ≥ 50 |
| NC(=O)c1nn(-c2ccc[n+]([O-])c2)cc1OC(F)(F)C(F)OC(F)(F)F (centres unmarked) [Compound A-5510, 3-(3-carbamoyl-4-[1,1,2-trifluoro-2-(trifluoromethoxy)ethoxy]-1H-pyrazole-1-yl)pyridine-1-oxide] | ≥ 50 |
